In brackets after ≈: the same amount, converted by molar mass. Several values for one entry are separate records, joined by “and”; a condition that tells them apart may be missing. Identical values can stand only once.
Key:
Format in all cases: functional
[1] = system: Mycobacterium tuberculosis; assay: Antimycobacterial activity against isoniazid, rifampicin, ethambutol, streptomycin and levofloxacin resistant Mycobacterium tuberculosis clinical isolate 1576 incubated for 7 days by resazurin dye based colorimetric method analysis; settings: Mycobacterium tuberculosis, 1576, 168 h; time 7 day
[2] = system: Mycobacterium tuberculosis; assay: Antimycobacterial activity against pre-extensively drug resistant Mycobacterium tuberculosis 1576 incubated for 7 days by resazurin dye based two-dimensional micro dilution checkerboard assay in presence of 1-(benzyloxy)heptadecan-2-amine; settings: time 7 day
[3] = system: Mycobacterium tuberculosis; assay: Antimycobacterial activity against pre-extensively drug resistant Mycobacterium tuberculosis 1576 incubated for 7 days by resazurin dye based two-dimensional micro dilution checkerboard assay in presence of 1-((3,4,5-trimethoxybenzyl)oxy)heptadecan-2-amine; settings: time 7 day
[4] = system: Mycobacterium tuberculosis; assay: Antimycobacterial activity against pre-extensively drug resistant Mycobacterium tuberculosis 1576 incubated for 7 days by resazurin dye based two-dimensional micro dilution checkerboard assay in presence of 2-aminoheptadecan-1-ol; settings: time 7 day
[5] = system: Mycobacterium tuberculosis; assay: Additive antimycobacterial activity against pre-extensively drug resistant Mycobacterium tuberculosis 1576 assessed as fractional inhibitory concentration index incubated for 48 hrs by micro dilution checkerboard assay in presence of rifampicin
[6] = system: Mycobacterium tuberculosis; assay: Additive antimycobacterial activity against pre-extensively drug resistant Mycobacterium tuberculosis 1576 assessed as fractional inhibitory concentration index incubated for 7 days by resazurin dye based two-dimensional micro dilution checkerboard assay in presence of levofloxacin; settings: time 7 day
[7] = system: Mycobacterium tuberculosis; assay: Antimycobacterial activity against pre-extensively drug resistant Mycobacterium tuberculosis 1576 incubated for 7 days by resazurin dye based two-dimensional micro dilution checkerboard assay in presence of rifampicin; settings: time 7 day
[8] = system: Mycobacterium tuberculosis; assay: Additive antimycobacterial activity against pre-extensively drug resistant Mycobacterium tuberculosis 1576 assessed as fractional inhibitory concentration index incubated for 7 days by resazurin dye based two-dimensional micro dilution checkerboard assay in presence of ethambutol; settings: time 7 day
[9] = system: Mycobacterium tuberculosis; assay: Additive antimycobacterial activity against pre-extensively drug resistant Mycobacterium tuberculosis 1576 incubated for 7 days by resazurin dye based two-dimensional micro dilution checkerboard assay in presence of isoniazid; settings: time 7 day
[10] = system: Mycobacterium tuberculosis; assay: Additive antimycobacterial activity against pre-extensively drug resistant Mycobacterium tuberculosis 1576 incubated for 7 days by resazurin dye based two-dimensional micro dilution checkerboard assay in presence of levofloxacin; settings: time 7 day
[11] = system: Mycobacterium tuberculosis; assay: Additive antimycobacterial activity against pre-extensively drug resistant Mycobacterium tuberculosis 1576 incubated for 7 days by resazurin dye based two-dimensional micro dilution checkerboard assay in presence of ethambutol; settings: time 7 day
[12] = system: Mycobacterium tuberculosis; assay: Additive antimycobacterial activity against pre-extensively drug resistant Mycobacterium tuberculosis 1576 incubated for 7 days by resazurin dye based two-dimensional micro dilution checkerboard assay in presence of amikacin; settings: time 7 day
[13] = system: Mycobacterium tuberculosis; assay: Antimycobacterial activity against pre-extensively drug resistant Mycobacterium tuberculosis 1576 assessed as fractional inhibitory concentration index incubated for 7 days by resazurin dye based two-dimensional micro dilution checkerboard assay in presence of rifampicin; settings: time 7 day
[14] = system: Mycobacterium tuberculosis; assay: Additive antimycobacterial activity against pre-extensively drug resistant Mycobacterium tuberculosis 1576 assessed as fractional inhibitory concentration index incubated for 7 days by resazurin dye based two-dimensional micro dilution checkerboard assay in presence of isoniazid; settings: time 7 day
[15] = system: Mycobacterium tuberculosis; assay: Additive antimycobacterial activity against pre-extensively drug resistant Mycobacterium tuberculosis 1576 assessed as fractional inhibitory concentration index incubated for 7 days by resazurin dye based two-dimensional micro dilution checkerboard assay in presence of amikacin; settings: time 7 day
[16] = system: Mycobacterium tuberculosis; assay: Antimycobacterial activity against pre-extensively drug resistant Mycobacterium tuberculosis 1576 assessed as reduction in CFU count at 8 uM in presence of rifampicin measured after 12 days relative to control; set-up: scale not given: the % may be the effect or the level left; settings: time 12 day
[17] = system: Mycobacterium tuberculosis; assay: (§1) Synergistic antimycobacterial activity against pre-extensively drug resistant Mycobacterium tuberculosis 1576 incubated for 7 days by resazurin dye based two-dimensional micro dilution checkerboard assay in presence of rifampicin; settings: time 7 day
[18] = system: Mycobacterium tuberculosis; assay: as §1, with “1576 assessed as reduction in concentration required to inhibit bacterial growth” for “1576”, “rifampicin relative to control” for “rifampicin”; set-up: scale not given: the % may be the effect or the level left; settings: time 7 day
[19] = system: Mycobacterium tuberculosis; assay: Synergistic antimycobacterial activity against pre-extensively drug resistant Mycobacterium tuberculosis 1576 assessed as fractional inhibitory concentration index incubated for 7 days by resazurin dye based two-dimensional micro dilution checkerboard assay in presence of rifampicin; settings: time 7 day
[20] = system: Mycobacterium tuberculosis; assay: Antimycobacterial activity against pre-extensively drug resistant Mycobacterium tuberculosis 1576 assessed as reduction in CFU count at 8 uM measured after 12 days relative to control; set-up: scale not given: the % may be the effect or the level left; settings: time 12 day

SMILES: CCCCCCCCCCCCCCCCCCCC(N)COCc1ccccc1 (configuration not stated)
- MIC [1]: 32 µM (≈ 13.4 µg/mL)

SMILES: CCCCc1ccc(CCCCCC(N)CO)cc1 (configuration not stated)
- MIC [1]: 64 µM (≈ 16.9 µg/mL)

SMILES: CCCCCCCCCCCC(CO)NCC (configuration not stated)
- MIC [1]: 64 µM (≈ 15.6 µg/mL)

SMILES: C[C@H]1COc2c(N3CCN(C)CC3)c(F)cc3c(=O)c(C(=O)O)cn1c23 [LEVOFLOXACIN ANHYDROUS]
- MIC [1]: 5.5 µM and 2 µg/mL
- FIC [2]: 0.5
- FIC [3]: 0.5
- FIC [4]: 0.5

SMILES: CCCCCCCCCCCCCCCC(CNCC(=O)OCC)NC(=O)OC(C)(C)C (configuration not stated)
- MIC [1]: 32 µM (≈ 14.6 µg/mL)

SMILES: CCCCCCCCCCCC(CO)N(CC)CC (configuration not stated)
- MIC [1]: 32 µM (≈ 8.69 µg/mL)

SMILES: CCCCCCCCCCCCCCCC(CO)N(CC)CC (configuration not stated)
- MIC [1]: 32 µM (≈ 10.5 µg/mL)

SMILES: NCC[C@H](O)C(=O)N[C@@H]1C[C@H](N)[C@@H](O[C@H]2O[C@H](CN)[C@@H](O)[C@H](O)[C@H]2O)[C@H](O)[C@H]1O[C@H]1O[C@H](CO)[C@@H](O)[C@H](N)[C@H]1O [AMIKACIN]
- MIC [1]: 0.8 µM and 0.63 µg/mL
- FIC [2]: 0.125
- FIC [3]: 0.25
- FIC [4]: 0.25

SMILES: CCCCCCCCCCCC(N)CO (configuration not stated)
- MIC [1]: 32 µM (≈ 6.89 µg/mL)

SMILES: CC[C@@H](CO)NCCN[C@@H](CC)CO [ETHAMBUTOL]
- MIC [1]: 28.8 µM and 8 µg/mL
- FIC [2]: 1
- FIC [3]: 0.25
- FIC [4]: 0.25

SMILES: CCCCCCCCCCCCCCCC(N)CNCC (configuration not stated)
- MIC [1]: 16 µM (≈ 4.78 µg/mL)

SMILES: CCCCCCCCCCCCCCCC(CN=[N+]=[N-])NC(=O)OC(C)(C)C (configuration not stated)
- MIC [1]: 16 µM (≈ 6.35 µg/mL)

SMILES: CCCCCCCCCCCCCCCCCC(CO)NCC (configuration not stated)
- MIC [1]: 16 µM (≈ 5.24 µg/mL)

SMILES: CCCCCCCCCCCCCCCC(CO)NCCCCCC (configuration not stated)
- MIC [1]: 64 µM (≈ 22.8 µg/mL)

SMILES: CCCCCCCCCCCC(CO)NCCCC (configuration not stated)
- MIC [1]: 32 µM (≈ 8.69 µg/mL)

SMILES: CCCCCCCCCCCCCCCCCCCC(COCc1ccccc1)NCC (configuration not stated)
- MIC [1]: 16 µM (≈ 7.13 µg/mL)

SMILES: CCCCCCCCCCCCCCCC(N)COCc1ccccc1 (configuration not stated)
- MIC [1]: 4.5 µM (≈ 1.63 µg/mL)
- fractional inhibitory concentration index (FICI) [5]: 0.56
- fractional inhibitory concentration index (FICI) [6]: 1
- FIC [7]: 0.5
- fractional inhibitory concentration index (FICI) [8]: 1.5
- FIC [9]: 0.5
- FIC [10]: 0.5
- FIC [11]: 0.5
- FIC [12]: 0.5
- fractional inhibitory concentration index (FICI) [13]: 0.56
- fractional inhibitory concentration index (FICI) [14]: 0.63
- fractional inhibitory concentration index (FICI) [15]: 0.63

SMILES: CCCCCCCCCCCCCCCC(N)COCc1cc(OC)c(OC)c(OC)c1 (configuration not stated)
- MIC [1]: 8 µM (≈ 3.61 µg/mL)
- Activity [16]: >=99.9%
- FIC [17]: 0.25
- Activity [18]: 75%
- fractional inhibitory concentration index (FICI) [6]: 1
- fractional inhibitory concentration index (FICI) [8]: 0.75
- FIC [9]: 0.5
- FIC [10]: 0.5
- FIC [11]: 0.5
- fractional inhibitory concentration index (FICI) [19]: 0.5
- FIC [12]: 0.5
- fractional inhibitory concentration index (FICI) [14]: 1
- fractional inhibitory concentration index (FICI) [15]: 0.75
- Activity [20]: >99.9%

SMILES: CCCCCCCCCCCCCCCCCC(CO)N(CC)CC (configuration not stated)
- MIC [1]: > 64 µM

SMILES: CCCCCCCCCCCCCCCCCC(CN)NC(=O)OC(C)(C)C (configuration not stated)
- MIC [1]: 16 µM (≈ 6.38 µg/mL)

SMILES: CCCCCCCCCCCCCCCC(CNCC)NC(=O)OC(C)(C)C (configuration not stated)
- MIC [1]: 16 µM (≈ 6.38 µg/mL)

SMILES: CCCCCCCCCCCCCCCC(COCc1ccccc1)NCCCCCC (configuration not stated)
- MIC [1]: 64 µM (≈ 28.5 µg/mL)

SMILES: CCCCCCCCCCCCCCCC(COCc1ccccc1)NCC (configuration not stated)
- MIC [1]: 16 µM (≈ 6.23 µg/mL)

SMILES: CCCCc1ccc(CCCCCCCCCC(N)CO)cc1 (configuration not stated)
- MIC [1]: 2 µM (≈ 0.639 µg/mL)

SMILES: CCCCCCCCCCCCCCCCCC(CO)NCCCC (configuration not stated)
- MIC [1]: 32 µM (≈ 11.4 µg/mL)

SMILES: CCCCCCCCCCCCCCCCCCCC(CNCC)NC(=O)OC(C)(C)C (configuration not stated)
- MIC [1]: 4 µM (≈ 1.82 µg/mL)

SMILES: CCCCCCCCCCCCCCCC(CO)NCCCC (configuration not stated)
- MIC [1]: 64 µM (≈ 21 µg/mL)

SMILES: CCCCCCCCCCCCCCCC(CN)NC(=O)OC(C)(C)C (configuration not stated)
- MIC [1]: 17.6 µM (≈ 6.52 µg/mL)

SMILES: CCCCCCCCCCCCCCCC(N)CN (configuration not stated)
- MIC [1]: 390 µM (≈ 105 µg/mL)

SMILES: CO[C@H]1/C=C/O[C@@]2(C)Oc3c(C)c(O)c4c(O)c(c(/C=N/N5CCN(C)CC5)c(O)c4c3C2=O)NC(=O)/C(C)=C\C=C\[C@H](C)[C@H](O)[C@@H](C)[C@@H](O)[C@@H](C)[C@H](OC(C)=O)[C@@H]1C [RIFAMPIN]
- MIC [1]: 78 µM and 64 µg/mL
- FIC [2]: 0.063
- FIC [3]: 0.25
- FIC [4]: 0.031

SMILES: CCCCCCCCCCCCCCCCCCCC(CN)NC(=O)OC(C)(C)C (configuration not stated)
- MIC [1]: 64 µM (≈ 27.3 µg/mL)

SMILES: CCCCc1ccc(CCCCCCCCCC(CO)NC(=O)OC(C)(C)C)cc1 (configuration not stated)
- MIC [1]: 16 µM (≈ 6.71 µg/mL)

SMILES: CCCCc1ccc(CCCCCCCC(CO)NC(=O)OC(C)(C)C)cc1 (configuration not stated)
- MIC [1]: 16 µM (≈ 6.27 µg/mL)

SMILES: CCCCCCCCCCCCCCCCCC(N)CO (configuration not stated)
- MIC [1]: 8 µM (≈ 2.4 µg/mL)

SMILES: CCCCCCCCCCCCCCCC(CO)NCCCCCCCCCC (configuration not stated)
- MIC [1]: 64 µM (≈ 26.4 µg/mL)

SMILES: CCCCCCCCCCCCCCCC(N)CO (configuration not stated)
- MIC [1]: 3.03 µM (≈ 0.823 µg/mL)
- fractional inhibitory concentration index (FICI) [5]: 0.53
- fractional inhibitory concentration index (FICI) [6]: 1
- FIC [7]: 0.5
- fractional inhibitory concentration index (FICI) [8]: 0.75
- FIC [9]: 0.5
- FIC [10]: 0.5
- FIC [11]: 0.5
- FIC [12]: 0.5
- fractional inhibitory concentration index (FICI) [13]: 0.53
- fractional inhibitory concentration index (FICI) [14]: 0.63
- fractional inhibitory concentration index (FICI) [15]: 0.75

SMILES: CCCCc1ccc(CCCCCC(CO)NC(=O)OC(C)(C)C)cc1 (configuration not stated)
- MIC [1]: 16 µM (≈ 5.82 µg/mL)

SMILES: CCCCc1ccc(CCCCCCCC(N)CO)cc1 (configuration not stated)
- MIC [1]: 2 µM (≈ 0.583 µg/mL)

SMILES: CCCCCCCCCCCCCCCC(CO)NCC (configuration not stated)
- MIC [1]: 32 µM (≈ 9.59 µg/mL)

SMILES: CCCCCCCCCCCCCCCCCC(COCc1ccccc1)NCCCCCC (configuration not stated)
- MIC [1]: 64 µM (≈ 30.3 µg/mL)

SMILES: CCCCCCCCCCCCCCCC(CNCCCCCC)NC(=O)OC(C)(C)C (configuration not stated)
- MIC [1]: 8 µM (≈ 3.64 µg/mL)

SMILES: CCCCCCCCCCCCCCCCCCCC(CO)N(CC)CC (configuration not stated)
- MIC [1]: > 64 µM

SMILES: NNC(=O)c1ccncc1 [ISONIAZID]
- MIC [1]: 934 µM and 128 µg/mL
- FIC [2]: 0.125
- FIC [3]: 0.5
- FIC [4]: 0.125

SMILES: CCCCCCCCCCCCCCCCCC(N)COCc1ccccc1 (configuration not stated)
- MIC [1]: 64 µM (≈ 24.9 µg/mL)

SMILES: CCCCCCCCCCCCCCCC(CO)N(CCCC)CCCC (configuration not stated)
- MIC [1]: 8 µM (≈ 3.07 µg/mL)

SMILES: CCCCCCCCCCCCCCCC(CNCCCC)NC(=O)OC(C)(C)C (configuration not stated)
- MIC [1]: 8 µM (≈ 3.41 µg/mL)

SMILES: CCCCCCCCCCCC(CNCC)NC(=O)OC(C)(C)C (configuration not stated)
- MIC [1]: 64 µM (≈ 21.9 µg/mL)
